Patent US20060036073A1, “Neurotrophic and neuroprotective peptides” (priority 2002, published 2006)
Where a SMILES comes first, the peptide text is derived from it. Where no end group is shown, it is not given here.

Legend:
[1] = test system: cortical neurons that are obtained from chicken embryos; test: Summary of the screening over all neuroprotection assays; format: cell-based; settings: for Active in: (number of assays): Table 2 summary
Experimental: Since the targets of the therapy with the peptides presented according to the invention are various neurodegenerative diseases, different model systems for detecting the biological activity of the peptides according to the invention in the case of neurodegenerative diseases were used. Later, the individually used model systems and the results thus achieved are described. […] That is to say, the implementation of the tests was carried out on different days with different cell preparations and by different individuals. For some peptides, two numbers were issued (#1=#23 or #6=#35 or #7=#43), but the results with these peptides were only shown once. […] With some other substances, there were problems in the production, and thus only small amounts were available, and it was not possible to test the substances in all the assays (#12, 14, 17, 35 and #48). […] As could be seen from the figures, the standard deviations, i.e., the fluctuations between the independent experiments, are to some extent quite large. These fluctuations can be attributed to stability problems. These peptides are the peptides that are preferred within the scope of the invention.

[2] = test system: cortical neurons that are obtained from chicken embryos; test: Chronic disruption of the calcium metabolism by ionomycin, neuron viability by MTT; format: cell-based; settings: ionomycin 10 μM, 24 hours
Experimental: It is common to these biological test systems that cortical neurons that are obtained from chicken embryos are cultivated in culture plates for eight days and then are exposed to a specific noxa (Pettmann et al., Nature 281 (5730): 378-80 [1979]).
To this end, a one-day-old, fertilized hen's egg is incubated for eight days at +12 +/− 0.1° C. and 80 +/− 5% atmospheric humidity. On the embryonal day 0, the eggs are transferred into an incubator and incubated up to the embryonal day 8 at 38 +/− 0.5° C. and 55 +/− 5%. After the brains are removed, the cortices are isolated, homogenized, and neurons are taken into primary culture (culture conditions: Dulbecco's Modified Eagle's Medium, 20% v/v fetal calf serum, 0.01% gentamicin, 1 g/l of glucose, 2 mmol of L-glutamine, +37° C., 5% CO2 and 95% atmospheric humidity). […] After the end of the specified stress period, the proportion of the still living neurons is determined with a metabolic colorimetric assay (the reaction of the yellow chromophore MTT to a blue formazan product is carried out only by living cells).
It is expected that in the case of various neurodegenerative diseases, chronic calcium overloading occurs because of metabolic malfunctions, which ultimately produces cell death via the activation of various enzyme systems. […]

[3] = test system: amyloid-beta peptides (β-amyloid 25-35) / nerve cell cultures; test: Amyloid-beta aggregation assay (peptide added to fresh amyloid-beta solution, effect on nerve cell cultures); format: cell-based, chicken; settings: for AβP reagg. (diff vs C): difference vs control, only one round of testing
Experimental: Beta-Amyloid peptides represent, in aggregated form, a potent neurotoxin whose addition to the nerve cell cultures results in a quick and progressive cell death. Since beta-amyloid peptides constitute an essential role in the pathogenesis of Alzheimer's disease, this model can be considered especially relevant.
This biological test is a process for testing anti-aggregatory substance potential that is specially developed for this project. The newly synthesized peptides are added directly to a fresh solution of amyloid-beta peptides to prevent the formation of neurotoxic aggregates. The effect that aggregates that still develop have on growth and survival of nerve cell cultures is the measurement parameter.

[4] = test system: cortical neurons that are obtained from chicken embryos; test: Serum-withdrawal assay (2% assay), neuron viability by MTT; format: cell-based
Experimental: This simulates the disruptions in the stimulation of neurons with nerve growth factors that are assumed to be one of the possible causes of neurodegenerative diseases. The effectiveness of the new peptides in preventing cell death was measured.

Molecule | effectiveness across the screening assays (in words) [1] | Active in: (number of assays) [1] | other results
CSCC[C@H](NC(=O)[C@H](Cc1ccccc1)NC(=O)[C@@H](NC(=O)[C@@H](N)CC(=O)O)C(C)C)C(=O)O [BH#33, DVFM] (H-DVFM-OH; N-terminus and C-terminus assumed) | effective in only one screening assay | – | –
CC(C)[C@H](NC(=O)[C@@H](N)CC(=O)O)C(=O)N[C@@H](Cc1ccccc1)C(=O)O [BH#34, DVF] (H-Asp-Val-Phe-OH) | – | – | increase in cell vitality to [2]: about 150%; AβP reagg. (diff vs C) [3]: 19%
Ac-SMAKEGV [BH#8, SMAKEGV] | – | 5 of 7 | increase in cell vitality to [2]: about 150%; action in models of pathological processes of neurodegenerative diseases (in words) [1]: excellent action
DVFMK [BH#32] | not effective in any assay | – | –
DVFMKGL [BH#30, DVFMKGL] | effective in only one screening assay | – | –
DVFMKGLSM [BH#28, DVFMKGLSM] | – | 4 of 7 | –
DVFMKGLSMA [BH#27, DVFMKGLSMA] | – | 4 of 7 | –
DVFMKGLSMAK [BH#26] | – | 2 of 7 | increase of neuronal vitality by ([3]; β-amyloid 25-35, peptide added to fresh amyloid solution): 74%
GLS [BH#41] | not effective in any assay | – | –
GLSMA [BH#39] | effective in only one screening assay | – | –
GLSMAKE [BH#37, GLSMAKE] | – | – | effects over the effects of the control (=100%) [4]: 150%
LSMAK [BH#46, LSMAK] | – | 2 of 7 | action in models of pathological processes of neurodegenerative diseases (in words) [1]: excellent action
LSMAKE [BH#45, LSMAKE] | effective in only one screening assay | – | –
LSMAKEGV [BH#7, LSMAKEGV] | – | – | effects over the effects of the control (=100%) [4]: approximately 450%
MDVFMK [BH#20, MDVFMK] | effective in only one screening assay | – | –
MDVFMKG [BH#19, MDVFMKG] | – | – | AβP reagg. (diff vs C) [3]: 20%
MDVFMKGL [BH#18] | not effective in any assay | – | –
MDVFMKGLSM [BH#16, MDVFMKGLSM] | – | 4 of 7 | effects over the effects of the control (=100%) [4]: 150%
